From PMC4920590, “GPR142 Controls Tryptophan-Induced Insulin and Incretin Hormone Secretion to Improve Glucose Metabolism” (PLoS ONE, 2016)
Like-named read-outs stand apart in the source and are kept apart here.

Assays:
human GPR142 = molecular target: T1, human GPR142 (Homo sapiens, UniProt Q7Z601); test: IP-1 accumulation assay in HEK293 cells stably expressing human GPR142; format: cell-based; conditions: for HEK293-hGPR142 EC50 (Emax): activity call, tested 170 nM to 30 mM; for Emax: HEK293, read-out: HEK293-hGPR142 Emax; for EC50: IP-1 accumulation, 1 hour, read-out: HEK293-hGPR142 EC50
T1 construct: expressed in transfected cells
T1 sequence (Q7Z601 1-374 isoform Q7Z601-2): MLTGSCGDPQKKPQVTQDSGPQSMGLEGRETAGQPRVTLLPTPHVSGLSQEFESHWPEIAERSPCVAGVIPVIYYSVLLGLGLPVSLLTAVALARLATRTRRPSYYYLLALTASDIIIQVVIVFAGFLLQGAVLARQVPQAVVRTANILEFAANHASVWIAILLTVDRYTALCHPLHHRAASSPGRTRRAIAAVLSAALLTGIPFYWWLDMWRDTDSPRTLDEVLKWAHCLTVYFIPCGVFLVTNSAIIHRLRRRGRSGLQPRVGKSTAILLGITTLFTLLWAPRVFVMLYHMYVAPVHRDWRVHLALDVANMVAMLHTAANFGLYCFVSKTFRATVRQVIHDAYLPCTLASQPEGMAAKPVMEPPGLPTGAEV
Procedure: (§1) HEK293 cells obtained from ATCC were used to generate cell lines stably expressing human GPR142 or mouse Gpr142 by transfecting cells with pcDNA3.1 expression vectors containing each cDNA. Cells expanded from single clones were maintained in DMEM containing 10% fetal bovine serum (FBS) and 800 μg/ml G418. Untransfected control HEK293 cells were maintained in DMEM containing 10% FBS. Cells were plated in 384 well plates at 5000 cells per well and allowed 18 hours for attachment. After addition of compounds, cells were incubated for 1 hour. IP-1 measurements were performed using an HTRF assay kit (Cisbio) according to manufacturer’s protocol using assay buffer containing 1 × HBSS (Hank’s Balanced Salt Solution, +Ca, +Mg), 0.1% bovine serum albumin (BSA), 50 mM LiCl and 20 mM HEPES (4-(2-hydroxyethyl)-1-piperazineethanesulfonic acid), pH 7.2. The reaction was stopped by addition of IP1-d2 followed by cryptate solution and the plates were incubated at 25°C for 1 hour. Fluorescence was read in an Envision instrument at 665 nm and 620 nm. The ratio of 665 nm/620 nm was calculated and converted to IP-1 levels using a standard curve method. The data was fit to 4-parameter fit logistics to determine EC50 values.

mouse GPR142 = molecular target: T2, mouse GPR142 (Mus musculus, UniProt Q7TQN9); test: IP-1 accumulation assay in HEK293 cells stably expressing mouse Gpr142; format: cell-based
T2 sequence (Q7TQN9 67-365 limits assumed): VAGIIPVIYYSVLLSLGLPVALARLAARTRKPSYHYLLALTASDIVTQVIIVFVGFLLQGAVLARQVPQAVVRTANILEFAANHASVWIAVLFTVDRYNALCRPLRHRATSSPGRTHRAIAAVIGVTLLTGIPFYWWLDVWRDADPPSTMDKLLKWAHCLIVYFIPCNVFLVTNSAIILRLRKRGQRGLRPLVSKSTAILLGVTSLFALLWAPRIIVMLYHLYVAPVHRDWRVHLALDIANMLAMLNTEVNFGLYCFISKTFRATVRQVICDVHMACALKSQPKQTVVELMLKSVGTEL
Procedure: as §1

murine pancreatic islets = test: Insulin secretion in isolated murine pancreatic islets (WT and Gpr142 KO); format: cell-based, mouse; conditions: 11.1 mM glucose, 1 hour
Procedure: Secretion was stopped by refrigerating the plates at 4°C for 3 minutes. Supernatant was removed from the wells and assayed for insulin levels using the MA6000 Mouse/Rat Insulin Kit (Meso Scale Discovery).

human pancreatic islets = test: Insulin secretion in isolated human pancreatic islets; format: cell-based; conditions: 11 mM glucose, 1 hour, non-diabetic donor
Source text: Human pancreatic islets were purchased from Prodo Labs at the Scharp-Lacy Research Institute (Irvine, CA, www.prodolabs.com) through the Integrated Islet Distribution Program in accordance with internal review board (IRB) ethical guidelines for use of human tissue. Islets were isolated at Prodo Labs from human pancreata from listed cadaver organ donors that were refused for primary human pancreas transplantation or isolated islets transplantion into listed diabetic recipients. […] The next day day islets were incubated for 30 min in EBSS buffer containing 0.1% BSA and 3 mM glucose. […] Islets were cultured for 60 min at 37°C. The incubation was stopped by chilling the samples on ice. The culture media was removed and stored at -20°C until its insulin concentration was measured. Insulin was measured using a custom built immunoassay (Meso Scale Discovery).

[1] = Glucose tolerance test (IPGTT/OGTT) after oral dosing in mice; format: in vivo, mouse; conditions: p.o. 30 minutes before glucose 2 g/kg; OGTT 10 mg/kg diet-induced obese C57 mice, IPGTT 30 mg/kg
Procedure: (§2) Mice were fasted overnight and allowed free access to water. […] Tail blood glucose levels were measured at indicated time points using handheld glucometers. For incretin hormone measurements, blood was collected via cardiac bleeds into EDTA-tubes containing DPP-4 inhibitor (Millipore) and protease inhibitor cocktail (Thermo Fisher). For insulin measurements during GTT, blood was collected from the tail.

[2] = Plasma insulin and incretin hormone levels after oral dosing in mice; format: in vivo, mouse
Procedure: as §2
Immunoassays were used to measure total GIP (Millipore, ELISA), total GLP-1, and insulin (Meso Scale Discovery). Enzymatic assays were used to measure TG, beta-hydroxybutarate (Sigma-Aldrich), and total cholesterol (Thermo Fisher). HDL-cholesterol was determined in the supernatant after removal of LDL/vLDL-cholesterol by a precipitation reagent (Sigma-Aldrich); non-HDL-cholesterol was determined by subtracting HDL from total cholesterol. Free fatty acids were measured by GC-MS.

[3] = relative efficacy normalized to maximal response of L-Tryptophan (100%)
[4] = 30 mg/kg p.o., normal C57 mice, fasted state and after oral glucose challenge

With `NC(=O)C[C@H](N)C(=O)O` [L-Asparagine] the “HEK293-hGPR142 EC50 (Emax)” value (human GPR142) was “Inactive”.
For `C[C@@H](O)[C@H](N)C(=O)O` [L-Threonine], the “HEK293-hGPR142 EC50 (Emax)” value (human GPR142) was “Inactive”.
With `NCCc1c[nH]c2ccccc12` [Trytamine] the “HEK293-hGPR142 EC50 (Emax)” value (human GPR142) was “Inactive”.
In the case of `N[C@@H](CCC(=O)O)C(=O)O` [L-Glutamic Acid], the “HEK293-hGPR142 EC50 (Emax)” value (human GPR142) is reported as “Inactive”.
In the case of `NCCCC[C@H](N)C(=O)O` [L-Lysine], the Emax (human GPR142; [3]) is reported as 20% and the EC50 (human GPR142; 170 nM to 30 mM) is reported as 16 mM.
Work on `CCCc1c(C(=O)NCc2cncn2C)cnn1-c1ncc(C)c(-c2cccs2)n1` [Compound A, N-[(3-methylimidazol-4-yl)methyl]-1-[5-methyl-4-(2-thienyl)pyrimidin-2-yl]-5-propyl-pyrazole-4-carboxamide] yielded an Emax (human GPR142; [3]) of 90%, an EC50 (human GPR142; 0.17 nM to 30 μM) of 7.1e-06 mM and an Emax (mouse GPR142; HEK293, relative efficacy normalized to maximal response of L-Tryptophan (100%), read-out: HEK293-mGPR142 Emax) of 90%. The EC50 (mouse GPR142; IP-1 accumulation, 1 hour, 0.17 nM to 30 μM, read-out: HEK293-mGPR142 EC50) was 0.88 nM, the “insulin secretion in WT murine islets” value (murine pancreatic islets) was “stimulated ex vivo insulin secretion” and the “insulin secretion in human primary islets” value (human pancreatic islets) was “stimulated ex vivo insulin secretion”. The “glucose excursion during OGTT and IPGTT” value [1] was “robust suppression of glucose excursion”, the “plasma insulin during glucose tolerance test” value ([2]; 10 mg/kg p.o., diet-induced obese C57 mice, 15 minutes after glucose challenge) was “increase in plasma insulin” and the “meal induced GIP, GLP-1, and insulin levels” value ([2]; 30 mg/kg p.o. 30 minutes prior to oral mixed meal challenge (Ensure-plus 10 mL/kg), C57 mice) was “additional stimulatory effects”. For the same molecule, the “effects on plasma hormones and glycemia in Gpr142 KO mice” value ([2]; 30 mg/kg p.o., KO mice) was “completely absent”, the “plasma GIP level” value [2, 4] was “significantly increased” and the “plasma GLP-1 level” value [2, 4] was “significantly increased”.
For `CC(C)C[C@H](N)C(=O)O` [L-Leucine], the “HEK293-hGPR142 EC50 (Emax)” value (human GPR142) was “Inactive”.
In the case of `CSCC[C@H](N)C(=O)O` [L-Methionine], the “HEK293-hGPR142 EC50 (Emax)” value (human GPR142) is reported as “Inactive”.
For `N[C@@H](CO)C(=O)O` [L-Serine], the “HEK293-hGPR142 EC50 (Emax)” value (human GPR142) was “Inactive”.
In the case of `C[C@H](N)C(=O)O` [L-Alanine], the “HEK293-hGPR142 EC50 (Emax)” value (human GPR142) is reported as “Inactive”.
In the case of `N[C@@H](Cc1c[nH]c2ccc(O)cc12)C(=O)O` [5-OH L-Tryptophan], the EC50 (human GPR142; 170 nM to 30 mM) is reported as 12 mM and the “HEK293-hGPR142 Emax” value (human GPR142; [3]) is reported as 34%.
In the case of `Nc1ccccc1C(=O)C[C@H](N)C(=O)O` [L-Kynurenine], the Emax (human GPR142; [3]) is reported as 18% and the EC50 (human GPR142; 170 nM to 30 mM) is reported as 12 mM.
With `CC(C)[C@H](N)C(=O)O` [L-Valine] the “HEK293-hGPR142 EC50 (Emax)” value (human GPR142) was “Inactive”.
